For one series, the system named is NMDA-induced injury. The conditions noted are these: for percent protection against NMDA-induced injury: 15 minutes and 2.25 hours after NMDA. The method, then:
Intrastriatal injections of NMDA (15 nmol/0.5 μL) were performed in male and female Sprague-Dawley rat pups (Charles River Laboratory, Portage, Mich.) on Postnatal Day (PND) 7. The animals were anesthetized with ether, and the calvarium was exposed by a midline incision through the skin. The rat pups were placed in a plaster of paris mold that was secured to a small animal stereotaxic instrument (Kopf Instruments). NMDA (Sigma) was dissolved in 0.1 M phosphate-buffered saline (PBS) adjusted to pH 7.4 with 1 N NaOH. Injections of NMDA ([…]) were placed in the middle of the right posterior corpus striatum (coordinates relative to Bregma; AP -2.0 mm, ML 2.5 mm, at a depth of 4.0 mm from the dura) with a 26-gauge Hamilton syringe. The syringe was left in place for 2 minutes following the injections to limit leakage. Temperature of the animals was kept constant after surgery in a thermostatically controlled environment (HovaBator chick incubator; BFG Corp., Savannah, Ga.) set at 35° C. to 36° C. for 1 hour after the last drug or vehicle injection. Drug solutions were prepared in PBS and injected intraperitoneally (0.05 mL volume) 15 minutes, and 2.25 hours after intrastriatal injection of NMDA. Control animals received equal volumes of PBS.
After surgery, all animals were returned to the mothers for 5 days, and decapitated on PND 12. The brains were removed, the cerebral hemispheres were separated, and wet weights of each hemisphere were determined individually. Differences of the hemispheric weights were compared for each animal using the formula: 100×(C-I/C)=percent damage, a value that indicates the severity of damage of the injected (I) cerebral hemisphere relative to that of the uninjected contralateral (C) hemisphere. Percent protection is used to indicate the relative protection of the neuroprotective compound compared to the control and was calculated as: 100×[1-(% damagetreated /% damagecontrol)]. Data were expressed as mean percent damage±S.E.M. in all groups. Independent t-tests were used for statistical comparisons.

The subject of series [1] is inducible nitric oxide synthase (iNOS), BV-2 microglia. The series can be described thus: Nitric oxide production in LPS-activated BV-2 microglia (Griess reaction). Format: cell-based. The note with it: Mus musculus, LPS 4 μg/mL, 16 hours, read-out: IC50, inhibition of nitric oxide production. The method, then:
BV-2 microglia were grown in 6-well tissue culture plates in DMEM/F12 media supplemented with 10% fetal calf serum. Prior to activation, cells were given fresh media containing various amounts of thiazolidinone. One hour after drug treatment, microglia were activated with lipopolysaccharide (LPS, 4 μg/mL) and placed in an incubator at 37° C. in an atmosphere containing 5% CO2. After 16 hours, cultures were evaluated for inducible nitric oxide synthase (iNOS) activity and expression. iNOS activity was determined using the Griess reaction. Cell-free culture media was mixed with an equal volume of Griess reagent (one volume of 1.0% sulfanilamide in 5% phosphoric acid mixed with one volume of 0.1% naphthylenediamine dihydrochloride in water) and incubated for 5 minutes at room temperature. Absorbance was measured at 560 nm and the concentration within a sample was determined using sodium nitrite as standard. iNOS expression was evaluated by extracting cellular protein and performing Western blot analysis using a monoclonal antibody specific for iNOS.
A general note: The Griess reaction detects nitrite, a stable product of nitric oxide.

In the next series the test system is ICAM-1. The series is described as follows: Cell-surface expression of ICAM-1. Type of series: cell-based.

The values that follow come from patent US5912259A, “Method for treating and preventing neurodegenerative disorders by administering a thiazolidinone” (Warner-Lambert Company, priority 1998, dated 1999).

The structures appear in SMILES notation. Where two headings read alike, the source gives them in different places.

For the molecule `CC(C)(C)c1cc(/C=C2\SC(N)=NC2=O)cc(C(C)(C)C)c1O` [CI-1004, (Z)-5-[[3,5-bis(1,1-dimethylethyl)-4-hydroxyphenyl]methylene]-2-imino-4-thiazolidinone methanesulfonate], the “percent protection against NMDA-induced injury” value came to 28.1±9.2% in the series with NMDA-induced injury (2×10 mg/kg i.p., p<0.04) and 49±8.2% in the series with NMDA-induced injury (2×30 mg/kg i.p., p<0.001). Also, in the series on NMDA-induced injury (rat, in vivo, 30 mg/kg), the “survival to PND 12” value is “One animal dosed with thiazolidinone (2×30 mg/kg) did not survive to PND 12”. For the same molecule, the IC50 (usually the concentration that inhibits the measured activity by half) in series [1] came out at 2.4 µM. Moreover, the “cell-surface expression of ICAM-1” value in the series on ICAM-1 is recorded as “blocks”.
